# In ChEMBL document CHEMBL3286231, “Synthesis and biological effects of new hybrid compounds composed of benzylguanidines and the alkylating group of busulfan on neuroblastoma cells” (Bioorg Med Chem Lett, 2014):
# Activity calls are given as the source filed them. The rule behind the calls is not given here.
# How the values were obtained:
# [1] = tested on: SIMA; assay: Antiproliferative activity against human SiMa cells after 72 hrs by MTT assay; format: functional, cell-based
# [2] = tested on: LS; assay: Antiproliferative activity against human LS cells after 72 hrs by MTT assay; format: functional, cell-based
# [3] = tested on: SK-N-SH; assay: Antiproliferative activity against human SK-N-SH cells after 72 hrs by MTT assay; format: functional, cell-based
# [4] = tested on: Kelly; assay: Antiproliferative activity against human Kelly cells after 72 hrs by MTT assay; format: functional, cell-based
# [5] = tested on: SIMA; assay: Increase in glycolysis in human SiMa cells assessed as conversion of glucose to lactate at 100 uM after 12 hrs relative to untreated control; format: functional
# [6] = tested on: LS; assay: (§1) Increase in glycolysis in human LS cells assessed as conversion of glucose to lactate at 100 uM after 12 hrs relative to untreated control; format: functional
# [7] = tested on: Kelly; assay: (§2) Increase in glycolysis in human Kelly cells assessed as conversion of glucose to lactate at 100 uM after 12 hrs relative to untreated control; format: functional
# [8] = tested on: SIMA; assay: Antiproliferative activity against human SiMa cells at 10 to 100 uM after 72 hrs by MTT assay; format: functional, cell-based
# [9] = tested on: SK-N-SH; assay: Antiproliferative activity against human SK-N-SH cells at 10 to 100 uM after 72 hrs by MTT assay; format: functional, cell-based
# [10] = tested on: Kelly; assay: Antiproliferative activity against human Kelly cells at 10 to 100 uM after 72 hrs by MTT assay; format: functional, cell-based
# [11] = tested on: LS; assay: Antiproliferative activity against human LS cells at 10 to 100 uM after 72 hrs by MTT assay; format: functional, cell-based
# [12] = as §1; format: functional
# [13] = as §2; format: functional
SMILES,Activity [1],Activity [2],Activity [3],Activity [4],Activity [5],Activity [6],Activity [7],Activity [8],Activity [9],Activity [10],Activity [11],Activity [12] [%],Activity [13] [%]
CS(=O)(=O)OCCCCOc1cccc(CNC(=N)N)c1,Dose-dependent effect,Dose-dependent effect,Dose-dependent effect,Dose-dependent effect,Active,Active,Active,,,,,,
CS(=O)(=O)OCCCCOS(C)(=O)=O,,,,,inactive,inactive,inactive,Active,Active,Active,Active,,
N=C(N)NCc1cccc(I)c1 [IOBENGUANE],,,,,98%,,,Active,Active,Active,Active,81,74
CS(=O)(=O)OCCCCOc1ccc(CNC(=N)N)cc1,Dose-dependent effect,Dose-dependent effect,Dose-dependent effect,Dose-dependent effect,Active,Active,Active,,,,,,
